test system: normal human melanocytes; assay: Activity on constitutive melanogenesis: melanin production by normal human melanocytes in vitro; format: cell-based; details: Melanocyte, 72 hours incubation, optical density, maximum concentration tested 200 μM, read-out: IC50 (μM): concentration at which a 50% decrease in melanin synthesis is achieved
Protocol: For the evaluations of the effect of preventing or decreasing pigmentation of the skin and/or of lightening of this skin, the examples are performed in the following manner.
The measurement of the depigmenting activity (reduction of melanin production) of compounds of formula (I) was performed by assaying normal human melanocytes in vitro as follows.
First of all, normal human melanocytes were cultured and dispensed into 384 wells. After 24 hours, the culture medium was replaced with a medium containing compounds of formula (I) to be evaluated. The cells were incubated for 72 hours before measurement of the final optical density, which measures the amount of melanin produced by the melanocytes. A dose effect was performed using a wide concentration range of the compounds evaluated. Thus, by making the concentrations and the melanin measurements correspond, it was possible to determine an IC50 in μM: concentration at which a 50% decrease in melanin synthesis is achieved.

SMILES | IC50 [µM]
OCCCc1ccc(O)cc1O [compound (A), reference compound] | 23.4
CC(=O)OCCC(C)c1ccc(O)cc1O (stereo not drawn) [Compound 3, 3-(2,4-dihydroxyphenyl) butyl acetate] | 4.96
CC(=O)OCCC(C)c1ccc(OC(C)=O)cc1OC(C)=O (stereo not drawn) [Compound 2, 4-[4-(acetyloxy)but-2-yl]benzene-1,3-diyl diacetate] | 4.08
CC(CCO)c1ccc(O)cc1O (stereo not drawn) [Compound 1, 4-(3-hydroxy-1-methylpropyl) benzene-1,3-diol] | 3.61

test system: pigmented reconstructed epidermides (keratinocytes and melanocytes of European origin, Episkin); assay: Depigmenting activity on pigmented reconstructed epidermis (melanin quantified by image analysis, Fontana-Masson stain); format: cell-based, human; details: compounds at 30 μM in DMSO, added to culture medium
Protocol: The aim of this test is to evaluate the modulation of melanogenesis in pigmented reconstructed epidermides after “systemic” application of the products. • The compounds are tested at 30 μM in DMSO. • The pigmented epidermides are reconstructed using keratinocytes and melanocytes of European origin seeded on the substrate BPER (Episkin). The test products are added to the culture medium immediately on seeding the cells and at all the changes of medium.
The pigmented reconstructed epidermis standard study model was published by:
Regnier M., Duval C., Galey J. B., Philippe M., Lagrange A., Tuloup R., Schmidt R., Cellular and Molecular Biology, 1999, 45, 7, 969-980: “Keratinocyte-melanocyte co-cultures and pigmented reconstructed human epidermis: models to study modulation of melanogenesis”.
The melanin was quantified by image analysis on histological sections after revelation with Fontana-Masson stain. Each stained epidermis is photographed over its entire length using a camera connected to a microscope.
The decrease in the amount of melanin is evaluated relative to the solvent (DMSO)

SMILES | Depigmenting activity/DMSO (decrease in the amount of melanin relative to the solvent) [%]
CC(CCO)c1ccc(O)cc1O (stereo not drawn) [Compound 1, 4-(3-hydroxy-1-methylpropyl) benzene-1,3-diol] | −59
CCCCc1ccc(O)cc1O [Lucinol, reference compound] | −41
